Experimental data: patent publication US6737383B1, “Herbicidal oxadiazolidines” (priority 1999, dated 2004)

How the values were obtained:
morningglory = assay: Test B pre/postemergence morningglory; format: in vivo, Ipomoea hederacea
How it was run: (§1)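 Herbicidal effect was estimated by eye on a ten-point control scale after plants spent twelve to sixteen days in a greenhouse following soil or foliar treatment. Foliar sprays targeted plants at one to four leaves; all doses were formulated in a non-phytotoxic solvent with surfactant.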

velvetleaf = assay: Test B pre/postemergence velvetleaf; format: in vivo, Abutilon theophrasti
How it was run: as §1

rape = assay: Test B pre/postemergence rape; format: in vivo, Brassica napus
How it was run: as §1

sugar beet = assay: Test B pre/postemergence sugar beet; format: in vivo, Beta vulgaris
How it was run: as §1

wild oat = assay: Test B pre/postemergence wild oat; format: in vivo, Avena fatua
How it was run: as §1

corn = assay: Test B pre/postemergence corn; format: in vivo, Zea mays
How it was run: as §1

pigweed = assay: Test B pre/postemergence pigweed; format: in vivo, Amaranthus retroflexus
How it was run: as §1

soybean = assay: Test B pre/postemergence soybean; format: in vivo, Glycine max
How it was run: as §1

surinam grass = assay: Test B pre/postemergence surinam grass; format: in vivo, Brachiaria decumbens
How it was run: as §1

cocklebur = assay: Test B pre/postemergence cocklebur; format: in vivo, Xanthium strumarium
How it was run: as §1

bedstraw = assay: Test B pre/postemergence bedstraw; format: in vivo, Galium aparine
How it was run: as §1

smallflower flatsedge = assay: Test B flood test smallflower flatsedge; format: in vivo, Cyperus difformis; conditions: Pre-emergence
How it was run: (§2)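 Read-out is a visual response score from 0 (no effect) to 10 (complete control), assigned by comparison with untreated controls. Treatment was applied at the 2-leaf stage, and plants stayed in the greenhouse for twelve to sixteen days before scoring.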

blackgrass = assay: Test B pre/postemergence blackgrass; format: in vivo, Alopecurus myosuroides
How it was run: as §1

rice = assay: Test B flood test rice; format: in vivo, Oryza sativa; conditions: Pre-emergence
How it was run: as §2

bamyardgrass = assay: Test B flood test barnyardgrass; format: in vivo, Echinochloa crus-galli; conditions: Pre-emergence
How it was run: as §2

purple nutsedge = assay: Test B pre/postemergence purple nutsedge; format: in vivo, Cyperus rotundus
How it was run: as §1

[1] = Preemergence, Rate 62 g/ha, scale of 0 to 10 where 0 is no effect and 10 is complete control
[2] = Preemergence, Rate 250 g/ha, scale of 0 to 10 where 0 is no effect and 10 is complete control
[3] = Preemergence, Rate 500 g/ha, scale of 0 to 10 where 0 is no effect and 10 is complete control
[4] = Rate 62 g/ha, Postemergence, scale 0 to 10, 0 no effect, 10 complete control
[5] = Rate 125 g/ha, Postemergence, scale of 0 to 10 where 0 is no effect and 10 is complete control
[6] = Rate 250 g/ha, Postemergence, scale of 0 to 10 where 0 is no effect and 10 is complete control
[7] = Rate 500 g/ha, Postemergence, scale 0 to 10, 0 no effect, 10 complete control
[8] = Rate 1000 g/ha, scale 0 to 10 (0 no effect, 10 complete control)
[9] = Rate 125 g/ha, flood test species, scale 0 to 10 where 0 is no effect and 10 is complete control
[10] = Rate 250 g/ha, flood-test species, scale 0 to 10, 0 is no effect, 10 is complete control

## CC(C)N(C(=O)n1oc(=O)n(CC2CCCC2)c1=O)c1ccc(F)cc1 [Compound 322]
morningglory; [1]
  Morningglory plant response rating: 0
morningglory; Preemergence, Rate 125 g/ha
  Morningglory plant response rating (0 to 10 scale): 0
morningglory; [2]
  Morningglory plant response rating: 0
morningglory; [3]
  Morningglory plant response rating: 0
morningglory; [4]
  Morningglory plant response rating: 4
morningglory; [5]
  Morningglory plant response rating: 4
morningglory; [6]
  Plant response rating, Morningglory: 7
morningglory; [7]
  Plant response rating, Morningglory: 8
velvetleaf; [1]
  Velvetleaf plant response rating: 0
velvetleaf; Preemergence, Rate 125 g/ha
  Velvetleaf plant response rating (0 to 10 scale): 0
velvetleaf; [2]
  Velvetleaf plant response rating: 0
velvetleaf; [3]
  Velvetleaf plant response rating: 0
velvetleaf; [4]
  Velvetleaf plant response rating: 0
velvetleaf; [5]
  Velvetleaf plant response rating: 0
velvetleaf; [6]
  Plant response rating, Velvetleaf: 0
velvetleaf; [7]
  Plant response rating, Velvetleaf: 2
rape; [1]
  Rape plant response rating: 0
rape; Preemergence, Rate 125 g/ha
  Rape plant response rating (0 to 10 scale): 0
rape; [2]
  Rape plant response rating: 0
rape; [3]
  Rape plant response rating: 2
rape; [4]
  Rape plant response rating: 0
rape; [5]
  Rape plant response rating: 0
rape; [6]
  Plant response rating, Rape: 0
rape; [7]
  Plant response rating, Rape: 0
Sugar beet; [1]
  Sugarbeets plant response rating: 0
Sugar beet; Preemergence, Rate 125 g/ha
  Sugarbeets plant response rating (0 to 10 scale): 2
Sugar beet; [2]
  Sugarbeets plant response rating: 2
Sugar beet; [3]
  Sugarbeets plant response rating: 4
Sugar beet; [4]
  Sugarbeets plant response rating: 0
Sugar beet; [5]
  Sugarbeets plant response rating: 0
Sugar beet; [6]
  Plant response rating, Sugarbeets: 0
Sugar beet; [7]
  Plant response rating, Sugarbeets: 2
Wild oat; [1]
  Wild oats plant response rating: 0
Wild oat; Preemergence, Rate 125 g/ha
  Wild oats plant response rating (0 to 10 scale): 0
Wild oat; [2]
  Wild oats plant response rating: 2
Wild oat; [3]
  Wild oats plant response rating: 3
Wild oat; [4]
  Wild oats plant response rating: 0
Wild oat; [5]
  Wild oats plant response rating: 0
Wild oat; [6]
  Plant response rating, Wild oats: 0
Wild oat; [7]
  Plant response rating, Wild oats: 2
corn; [1]
  Corn plant response rating: 0
corn; Preemergence, Rate 125 g/ha
  Corn plant response rating (0 to 10 scale): 0
corn; [2]
  Corn plant response rating: 0
corn; [3]
  Corn plant response rating: 0
corn; [4]
  Corn plant response rating: 0
corn; [5]
  Corn plant response rating: 0
corn; [6]
  Plant response rating, Corn: 0
corn; [7]
  Plant response rating, Corn: 0
pigweed; [1]
  Redroot pigweed plant response rating: 0
pigweed; Preemergence, Rate 125 g/ha
  Redroot pigweed plant response rating (0 to 10 scale): 6
pigweed; [2]
  Redroot pigweed plant response rating: 8
pigweed; [3]
  Redroot pigweed plant response rating: 8
pigweed; [4]
  Redroot pigweed plant response rating: 2
pigweed; [5]
  Redroot pigweed plant response rating: 3
pigweed; [6]
  Plant response rating, Redroot pigweed: 3
pigweed; [7]
  Plant response rating, Redroot pigweed: 6
soybean; [1]
  Soybean plant response rating: 0
soybean; Preemergence, Rate 125 g/ha
  Soybean plant response rating (0 to 10 scale): 0
soybean; [2]
  Soybean plant response rating: 0
soybean; [3]
  Soybean plant response rating: 0
soybean; [4]
  Soybean plant response rating: 1
soybean; [5]
  Soybean plant response rating: 3
soybean; [6]
  Plant response rating, Soybean: 4
soybean; [7]
  Plant response rating, Soybean: 5
Surinam grass; [1]
  B. signalgrass plant response rating: 0
Surinam grass; Preemergence, Rate 125 g/ha
  B. signalgrass plant response rating (0 to 10 scale, 0 is no effect, 10 is complete control): 0
Surinam grass; [2]
  B. signalgrass plant response rating: 1
Surinam grass; [3]
  B. signalgrass plant response rating: 3
Surinam grass; [4]
  B. signalgrass plant response rating: 0
Surinam grass; [5]
  B. signalgrass plant response rating: 0
Surinam grass; [6]
  Plant response rating, B. signalgrass: 0
Surinam grass; [7]
  Plant response rating, B. signalgrass: 3
cocklebur; [1]
  Cocklebur plant response rating: 0
cocklebur; Preemergence, Rate 125 g/ha
  Cocklebur plant response rating (0 to 10 scale): 0
cocklebur; [2]
  Cocklebur plant response rating: 0
cocklebur; [3]
  Cocklebur plant response rating: 4
cocklebur; [4]
  Cocklebur plant response rating: 0
cocklebur; [5]
  Cocklebur plant response rating: 0
cocklebur; [6]
  Plant response rating, Cocklebur: 0
cocklebur; [7]
  Plant response rating, Cocklebur: 4
bedstraw; [1]
  Bedstraw plant response rating: 0
bedstraw; Preemergence, Rate 125 g/ha
  Bedstraw plant response rating (0 to 10 scale): 0
bedstraw; [3]
  Bedstraw plant response rating: 2
bedstraw; [4]
  Bedstraw plant response rating: 0
bedstraw; [5]
  Bedstraw plant response rating: 0
bedstraw; [6]
  Plant response rating, Bedstraw: 4
bedstraw; [7]
  Plant response rating, Bedstraw: 4
Smallflower flatsedge; [8]
  S. Flatsedge plant response rating: 0
Smallflower flatsedge; [9]
  S. Flatsedge plant response rating: 0
Smallflower flatsedge; [10]
  S. Flatsedge plant response rating: 0
blackgrass; [1]
  Blackgrass plant response rating: 0
blackgrass; Preemergence, Rate 125 g/ha
  Blackgrass plant response rating (0 to 10 scale): 0
blackgrass; [2]
  Blackgrass plant response rating: 5
blackgrass; [3]
  Blackgrass plant response rating: 7
blackgrass; [4]
  Blackgrass plant response rating: 0
blackgrass; [5]
  Blackgrass plant response rating: 0
blackgrass; [6]
  Plant response rating, Blackgrass: 1
blackgrass; [7]
  Plant response rating, Blackgrass: 8
rice; [8]
  Rice plant response rating: 0
rice; [9]
  Rice plant response rating: 0
rice; [10]
  Rice plant response rating: 0
bamyardgrass; [8]
  Barnyardgrass plant response rating: 9
bamyardgrass; [9]
  Barnyardgrass plant response rating: 3
bamyardgrass; [10]
  Barnyardgrass plant response rating: 7
Purple nutsedge; [1]
  Nutsedge plant response rating: 0
Purple nutsedge; Preemergence, Rate 125 g/ha
  Nutsedge plant response rating (0 to 10 scale): 0
Purple nutsedge; [2]
  Nutsedge plant response rating: 0
Purple nutsedge; [3]
  Nutsedge plant response rating: 0
Purple nutsedge; [4]
  Nutsedge plant response rating: 0
Purple nutsedge; [5]
  Nutsedge plant response rating: 0
Purple nutsedge; [6]
  Plant response rating, Nutsedge: 0
Purple nutsedge; [7]
  Plant response rating, Nutsedge: 0
